Laboratory results from ChEMBL document CHEMBL1909294, “Translating clinical findings into knowledge in drug safety evaluation--drug induced liver injury prediction system (DILIps)” (PLoS Comput Biol, 2011).

How the values were obtained:
[1] = system: Hepatotoxicity;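 on HepSE cholelithiasis: hepatic side effect score for cholelithiasis, drawn from the DILIps training data for predicting drug-induced liver injury; call rule not given here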;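 on HepSE elevated liver function tests: hepatic side effect score for raised liver function tests, as recorded in the DILIps training set used for predicting drug-induced liver injury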; on HepSE hepatic failure: call rule not given here;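 on HepSE hepatic necrosis: score of hepatic side effects for hepatic necrosis, drawn from the training data of DILIps, a prediction system for drug-induced liver injury; call rule not given here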;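 on HepSE hepatomegaly: hepatic side effect score for hepatomegaly, taken from the training set of the DILIps drug-induced liver injury prediction system; call rule not given here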;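 on HepSE jaundice: Jaundice-related hepatic side-effect score drawn from the training data of the DILIps (drug-induced liver injury prediction system); call rule not given here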; on HepSE liver disease: call rule not given here
[2] = system: Hepatotoxicity; remark: listed apart in the source;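 on HepSE cholelithiasis: hepatic side effect score for cholelithiasis, drawn from the DILIps training data for predicting drug-induced liver injury; call rule not given here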;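 on HepSE elevated liver function tests: hepatic side effect score for raised liver function tests, as recorded in the DILIps training set used for predicting drug-induced liver injury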; on HepSE hepatic failure: call rule not given here;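 on HepSE hepatic necrosis: score of hepatic side effects for hepatic necrosis, drawn from the training data of DILIps, a prediction system for drug-induced liver injury; call rule not given here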;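 on HepSE hepatomegaly: hepatic side effect score for hepatomegaly, taken from the training set of the DILIps drug-induced liver injury prediction system; call rule not given here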;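 on HepSE jaundice: Jaundice-related hepatic side-effect score drawn from the training data of the DILIps (drug-induced liver injury prediction system); call rule not given here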
[3] = system: Hepatotoxicity; remark: listed apart in the source;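 on HepSE cholelithiasis: hepatic side effect score for cholelithiasis, drawn from the DILIps training data for predicting drug-induced liver injury; call rule not given here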;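 on HepSE elevated liver function tests: hepatic side effect score for raised liver function tests, as recorded in the DILIps training set used for predicting drug-induced liver injury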; on HepSE hepatic failure: call rule not given here;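 on HepSE hepatic necrosis: score of hepatic side effects for hepatic necrosis, drawn from the training data of DILIps, a prediction system for drug-induced liver injury; call rule not given here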;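 on HepSE hepatomegaly: hepatic side effect score for hepatomegaly, taken from the training set of the DILIps drug-induced liver injury prediction system; call rule not given here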;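 on HepSE jaundice: Jaundice-related hepatic side-effect score drawn from the training data of the DILIps (drug-induced liver injury prediction system); call rule not given here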
[4] = system: Hepatotoxicity; remark: listed apart in the source;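 on HepSE cholelithiasis: hepatic side effect score for cholelithiasis, drawn from the DILIps training data for predicting drug-induced liver injury; call rule not given here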;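 on HepSE elevated liver function tests: hepatic side effect score for raised liver function tests, as recorded in the DILIps training set used for predicting drug-induced liver injury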; on HepSE hepatic failure: call rule not given here;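 on HepSE hepatic necrosis: score of hepatic side effects for hepatic necrosis, drawn from the training data of DILIps, a prediction system for drug-induced liver injury; call rule not given here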;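 on HepSE hepatomegaly: hepatic side effect score for hepatomegaly, taken from the training set of the DILIps drug-induced liver injury prediction system; call rule not given here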;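 on HepSE jaundice: Jaundice-related hepatic side-effect score drawn from the training data of the DILIps (drug-induced liver injury prediction system); call rule not given here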
[5] = system: Hepatotoxicity; remark: listed apart in the source; on HepSE hepatic failure: call rule not given here
[6] = system: Hepatotoxicity; remark: listed apart in the source; on HepSE hepatic failure: call rule not given here
[7] = system: Hepatotoxicity; remark: listed apart in the source
[8] = system: Hepatotoxicity; remark: listed apart in the source
[9] = system: Hepatotoxicity; remark: listed apart in the source
[10] = system: Hepatotoxicity; remark: listed apart in the source
[11] = system: Hepatotoxicity; remark: listed apart in the source
[12] = system: Hepatotoxicity; remark: listed apart in the source
[13] = system: Hepatotoxicity; remark: listed apart in the source
[14] = system: Hepatotoxicity; remark: listed apart in the source

CN(C)CCC=C1c2ccccc2C=Cc2ccccc21 [CYCLOBENZAPRINE]
HepSE_hepatic necrosis ([1]; Liver): 0 | HepSE_hepatomegaly ([2]; Liver): 0 | HepSE_elevated liver function tests ([3]; Liver): 0 | HepSE_cholelithiasis ([4]; Liver): 0 | HepSE_liver fatty ([5]; Liver): 0 | HepSE_jaundice ([6]; Liver): 1 | HepSE_hepatic failure ([7]; Liver): 0 | HepSE_liver disease ([8]; Liver): 0 | HepSE_bilirubinemia ([9]; Liver): 0 | HepSE_hepatitis ([10]; Liver): 1 | HepSE_Combined Scores ([11]; Liver): 2 | HepSE_cholecystitis ([12]; Liver): 0 | HepSE_liver function tests abnormal ([13]; Liver): 0 | HepSE_cirrhosis ([14]; Liver): 0

CN(C)CCOC(=O)C(c1ccccc1)C1(O)CCCC1 (stereo unspecified) [CYCLOPENTOLATE]
HepSE_hepatic necrosis [1]: 0 | HepSE_hepatomegaly [2]: 0 | HepSE_elevated liver function tests [3]: 0 | HepSE_cholelithiasis [4]: 0 | HepSE_liver fatty [5]: 0 | HepSE_jaundice [6]: 0 | HepSE_hepatic failure [7]: 0 | HepSE_liver disease [8]: 0 | HepSE_bilirubinemia [9]: 0 | HepSE_hepatitis [10]: 0 | HepSE_Combined Scores [11]: 0 | HepSE_cholecystitis [12]: 0 | HepSE_liver function tests abnormal [13]: 0 | HepSE_cirrhosis [14]: 0

O=P1(N(CCCl)CCCl)NCCCO1 (stereo unspecified) [CYCLOPHOSPHAMIDE ANHYDROUS]
HepSE_hepatic necrosis ([1]; Liver): 0 | HepSE_hepatomegaly ([2]; Liver): 1 | HepSE_elevated liver function tests ([3]; Liver): 0 | HepSE_cholelithiasis ([4]; Liver): 0 | HepSE_liver fatty ([5]; Liver): 0 | HepSE_jaundice ([6]; Liver): 1 | HepSE_hepatic failure ([7]; Liver): 0 | HepSE_liver disease ([8]; Liver): 0 | HepSE_bilirubinemia ([9]; Liver): 1 | HepSE_hepatitis ([10]; Liver): 0 | HepSE_Combined Scores ([11]; Liver): 3 | HepSE_cholecystitis ([12]; Liver): 0 | HepSE_liver function tests abnormal ([13]; Liver): 0 | HepSE_cirrhosis ([14]; Liver): 0

N[C@@H]1CON=C1O [CYCLOSERINE]
HepSE_hepatic necrosis [1]: 0 | HepSE_hepatomegaly [2]: 0 | HepSE_elevated liver function tests [3]: 0 | HepSE_cholelithiasis [4]: 0 | HepSE_liver fatty [5]: 0 | HepSE_jaundice [6]: 0 | HepSE_hepatic failure [7]: 0 | HepSE_liver disease [8]: 1 | HepSE_bilirubinemia [9]: 0 | HepSE_hepatitis [10]: 0 | HepSE_Combined Scores [11]: 1 | HepSE_cholecystitis [12]: 0 | HepSE_liver function tests abnormal [13]: 0 | HepSE_cirrhosis [14]: 0

CN1CCC(=C2c3ccccc3C=Cc3ccccc32)CC1 [CYPROHEPTADINE]
HepSE_hepatic necrosis [1]: 0 | HepSE_hepatomegaly [2]: 0 | HepSE_elevated liver function tests [3]: 0 | HepSE_cholelithiasis [4]: 0 | HepSE_liver fatty [5]: 0 | HepSE_jaundice [6]: 1 | HepSE_hepatic failure [7]: 1 | HepSE_liver disease [8]: 0 | HepSE_bilirubinemia [9]: 0 | HepSE_hepatitis [10]: 1 | HepSE_Combined Scores [11]: 3 | HepSE_cholecystitis [12]: 0 | HepSE_liver function tests abnormal [13]: 0 | HepSE_cirrhosis [14]: 0

CC(=O)[C@@]1(O)CC[C@H]2[C@@H]3C=C(Cl)C4=CC(=O)[C@@H]5C[C@@H]5[C@]4(C)[C@H]3CC[C@@]21C [CYPROTERONE]
HepSE_hepatic necrosis [1]: 1 | HepSE_hepatomegaly [2]: 1 | HepSE_elevated liver function tests [3]: 0 | HepSE_cholelithiasis [4]: 0 | HepSE_liver fatty [5]: 0 | HepSE_jaundice [6]: 1 | HepSE_hepatic failure [7]: 1 | HepSE_liver disease [8]: 0 | HepSE_bilirubinemia [9]: 0 | HepSE_hepatitis [10]: 1 | HepSE_Combined Scores [11]: 6 | HepSE_cholecystitis [12]: 0 | HepSE_liver function tests abnormal [13]: 0 | HepSE_cirrhosis [14]: 1

NCCS [CYSTEAMINE]
HepSE_hepatic necrosis [1]: 0 | HepSE_hepatomegaly [2]: 0 | HepSE_elevated liver function tests [3]: 0 | HepSE_cholelithiasis [4]: 0 | HepSE_liver fatty [5]: 0 | HepSE_jaundice [6]: 0 | HepSE_hepatic failure [7]: 0 | HepSE_liver disease [8]: 0 | HepSE_bilirubinemia [9]: 0 | HepSE_hepatitis [10]: 0 | HepSE_Combined Scores [11]: 0 | HepSE_cholecystitis [12]: 0 | HepSE_liver function tests abnormal [13]: 0 | HepSE_cirrhosis [14]: 0

Nc1ccn([C@@H]2O[C@H](CO)[C@@H](O)[C@@H]2O)c(=O)n1 [CYTARABINE]
HepSE_hepatic necrosis ([1]; Liver): 0 | HepSE_hepatomegaly ([2]; Liver): 0 | HepSE_elevated liver function tests ([3]; Liver): 0 | HepSE_cholelithiasis ([4]; Liver): 0 | HepSE_liver fatty ([5]; Liver): 0 | HepSE_jaundice ([6]; Liver): 1 | HepSE_hepatic failure ([7]; Liver): 0 | HepSE_liver disease ([8]; Liver): 0 | HepSE_bilirubinemia ([9]; Liver): 1 | HepSE_hepatitis ([10]; Liver): 0 | HepSE_Combined Scores ([11]; Liver): 2 | HepSE_cholecystitis ([12]; Liver): 0 | HepSE_liver function tests abnormal ([13]; Liver): 0 | HepSE_cirrhosis ([14]; Liver): 0

C[C@@H](O)C(=O)O [D-LACTIC ACID]
HepSE_hepatic necrosis [1]: 0 | HepSE_hepatomegaly [2]: 0 | HepSE_elevated liver function tests [3]: 0 | HepSE_cholelithiasis [4]: 0 | HepSE_liver fatty [5]: 0 | HepSE_jaundice [6]: 0 | HepSE_hepatic failure [7]: 0 | HepSE_liver disease [8]: 0 | HepSE_bilirubinemia [9]: 0 | HepSE_hepatitis [10]: 0 | HepSE_Combined Scores [11]: 0 | HepSE_cholecystitis [12]: 0 | HepSE_liver function tests abnormal [13]: 0 | HepSE_cirrhosis [14]: 0
